Measured values published in a melting point compilation (Tetko et al.; mined from patent text by program, amines drawn as free bases though some values may be those of a salt).

| SMILES | melting point |
| --- | --- |
| Cc1c(COc2cccc3c2CN(C2CCC(=O)NC2=O)C3=O)oc2ccccc12 (centres undefined) | 210 to 212 °C |
| N#CC1=C(c2cccs2)Nc2n[nH]cc2C1c1cccc2ccccc12 (centres undefined) | 214 °C |
| CCc1nc(-c2cccc(C)c2)c(-c2ccnc(CC#N)c2)s1 | 68 to 69 °C |
| CCCCCc1ccc(-c2ncc(C#N)c(Cl)n2)cc1 | 96 to 96.3 °C |
| COCc1ncn2c1CN(C)C(=O)c1c(Cl)cccc1-2 | 143 to 144 °C |
| CCCCOC(=O)c1ccc(C#N)cc1 | 54 to 55 °C |
| CCOC(OCC)c1coc2cc3c(cc2c1=O)OCO3 | 123 to 125 °C |
| CCCOc1ccc(S(=O)(=O)N2CCN(CCOC(=O)CCC)CC2)cc1-c1nc2c(CCC)cn(CC)c2c(=O)[nH]1 | 71.5 to 73 °C |
| O=C(O)c1ccccc1Sc1c(O)c2c(Cl)cc(Cl)cc2[nH]c1=O | > 300 °C |
| O=C1CC(=O)C2C3C=CC(C3)C12 (centres undefined) | 183 °C |
| Cc1cc(-c2ccc(C(F)(F)F)cc2)nc(-c2ccnc(-c3cccc(S(N)(=O)=O)c3)n2)c1 | > 250 °C |
| COc1ccnc(CCc2nc3cc(-c4ccc(S(=O)(=O)Nc5ccccc5)cc4)cnc3[nH]2)c1 | 231 to 233 °C |
| Cn1nc(N)nc1NCCCOc1ccc(CN2CCCCC2)cc1 | 104 to 105 °C |
| Nc1ncccc1OCc1ccccc1C(F)(F)F | 105 to 110 °C |
| CCOC(=O)n1c(=O)n(CCCl)c2cc(OC)ccc21 | 116 to 118 °C |
| CCCNC1Cc2cccc3[nH]c(=O)n(c23)C1 (centres undefined) | > 300 °C |
| COc1cc2c3c(c1)nc(SCc1ccc4ccccc4n1)n3CCC2 | 89 to 91 °C |
| O=C1OCC(c2ccc(Cl)cc2)C1CSCc1ccccc1 (centres undefined) | 66 to 69 °C |
| COc1cc(C)nc(NC(=O)NS(=O)(=O)C2=CCCCC2)n1 | 163 to 166 °C |
| COc1ccccc1N1CCN(CC=CCN)CC1 | 63 to 67 °C |
| COC(=O)c1cccc(N)c1CS(=O)(=O)NC(C)(C)C | 123 to 125 °C |
| Nc1nc2c(sc(=O)n2C2OC(COC(=O)c3ccccc3)C(OC(=O)c3ccccc3)C2F)c(=O)[nH]1 (centres undefined) | 282 to 284 °C |
| CN(C)C(=O)NNC(=O)c1ccccc1 | 199 to 201 °C |
| OCc1ccc(-c2cncc(OC3SCC(O)C(O)C3O)c2)cc1 (centres undefined) | 153 °C |
| CN(Cc1ccc(C=CC(=O)O)cc1)S(=O)(=O)c1ccccc1 | 112 °C |

| SMILES | melting point |
| --- | --- |
| COc1ccc(C(=O)Nc2c(Cl)cncc2Cl)c2c1OCC2CC(=O)NCc1ccc(Cl)cc1 (centres undefined) | 283 to 286 °C |
| CN(C)CCCC(=O)N1CCC(c2[nH]nc3c2C(=O)c2c(NC(=O)NN4CCOCC4)cccc2-3)CC1 | 145 to 147 °C |
| COc1cc(O)c2c(c1)OC(C(C)(C)C=C1N=C(c3ccccc3)OC1=O)CC2=O (centres undefined) | 147 to 149 °C |
| COC(=O)C1=C(C)NC(C)=C(C(=O)OC(C)CCl)C1c1cccc([N+](=O)[O-])c1 (centres undefined) | 95 to 102 °C |
| Cc1ccc(S(=O)(=O)N(Cc2ccccc2)N(C)C(=O)C2CC(S)CN2S(=O)(=O)c2ccc3ccccc3c2)cc1 (centres undefined) | 82.5 °C |
| COC(=O)[C@H]1CC[C@@H](n2nc(-c3c(-c4ccccc4)nn4ccccc34)ccc2=O)[C@H](O)C1 (relative stereo) | 169 to 172 °C |
| CSc1c(-c2ccccc2)[nH]c2ccccc12 | 103 °C |
| Cc1ccc(C)c(-c2cn(C)cc(-c3cccc(C(F)(F)F)c3)c2=O)c1 | 165 to 167 °C |
| O=C(O)COc1cccc2c(CCS(=O)(=O)C(c3ccccc3)c3ccccc3)coc12 | 177 to 179 °C |
| COc1cccc(C2=C(C#N)C(c3ccccc3OC)c3c[nH]nc3N2)c1 (centres undefined) | 192 °C |
| CC(=O)N1CCC(n2c(=O)[nH]c3ccccc32)CC1 | 212 to 214 °C |
| COc1cccc(N(C)C(=S)Oc2ccc3ccccc3c2)n1 | 95.5 to 97 °C |
| Cc1ccc(C(=O)c2[nH]c3cc(Cl)ccc3c2CC(=O)O)cc1 | 182 to 184 °C |
| O=C(O)C(O)c1csc2ccccc12 (centres undefined) | 89 to 91 °C |
| O=C1Nc2ccc(C(F)(C(F)(F)F)C(F)(F)F)cc2CN1NCc1cccnc1 | 159 to 161 °C |
| CCOC(=O)c1ncc2[nH]c3ccc(P(=O)(CC)CC)cc3c2n1 | 195 to 197 °C |
| CCCc1cccc(N2CC(=O)N(C)C(=O)N2)c1 | 112 to 115 °C |
| CN(C)C(=O)C(C)(C)n1cc(Br)c(-c2ccccc2)n1 | 122 to 124 °C |
| Cc1c(C(=O)Nc2ccc(OCC(C)C)c(C#N)c2)cnn1-c1ccc(F)cc1 | 177 to 178 °C |
| NC(=O)c1ncn2c1CN=C(c1ccccc1F)c1cc(Cl)ccc1-2 | 292 to 294 °C |
| CCOC(=O)c1oc2ccccc2c1N=CN(C)C | 89 to 90 °C |
| Nc1ncnc2c1c(-c1ccccc1)cn2-c1cccc(C(=O)NCCO)c1 | 194 to 198 °C |
| CC(=O)Nc1c(C(=O)c2ccco2)[nH]c2cc(Cl)ccc12 | 227 to 228 °C |
| CCc1nc(-c2ccc(OCCCc3ccccc3)cc2)no1 | 41 to 42 °C |
| Fc1ccc(F)c(CC2CCN([C@H]3CC[C@H](c4ccc5c(c4)OCO5)CC3)CC2)c1 | 96 to 97 °C |

| SMILES | melting point |
| --- | --- |
| CCCC(=O)c1cnc2c(COC(=O)c3ccc(OC)cc3)cccc2c1Nc1ccc(O)cc1C | 171 to 175 °C |
| COc1cccc(C(C)N(C)CCCOc2ccc(S(=O)(=O)c3c(C(C)C)cn4ccccc34)cc2)c1 (centres undefined) | 111 to 113 °C |
| CCOCC(OC(C)=O)C1CC(=O)C2(C)CCC3C(CCC4=CC(=O)C=C(C)C43C)C12 (centres undefined) | 155 to 157 °C |
| COC(=O)CCc1ccc(OCC2CN(c3ccccc3)C(=O)O2)cc1 (centres undefined) | 138 to 139 °C |
| CCCCC(Cc1ccc(OCCN(CC)CC)cc1)(C(=O)NO)S(=O)(=O)c1ccc(OC)cc1 (centres undefined) | 67 °C |
| NC(=O)c1cc2c(Sc3ccc(Cl)cc3)cncc2s1 | 239 to 241 °C |
| CCOC(=O)C(Cc1ccc(CC(F)(F)C(F)(F)F)cc1)C(=O)c1cccc(Cl)c1 (centres undefined) | 81 to 82 °C |
| O=C(O)CCC(=O)c1ccc2c(c1)CNC(=O)N2 | 176 to 180 °C |
| COc1cccc(OC)c1-c1cc(C(=O)O)nn1-c1ccc(C(N)=O)cc1C | 275 to 276 °C |
| CCOC(=O)c1cc(-c2ccc(N)cc2)cnc1C | 137 to 138 °C |
| CN1CCc2nc3cc(Cl)ccc3c(Nc3ccccc3)c2C1 | 197 to 198 °C |
| CC1CCCN1CCCOc1ccc(C2CCC(O)CC2)cc1 (centres undefined) | 80 °C |
| COc1ccc(CCCN2C(=O)c3ccccc3C2=O)cc1OC | 82 to 85 °C |
| ClCc1coc(-c2ccoc2)n1 | 70 to 71 °C |
| COCCOc1cc2ncc(C#N)c(NC3CCCC3)c2cc1OC | 87 to 90 °C |
| CC(=N)Nc1cccc(F)c1 | 175 to 177 °C |
| COc1cc(C(=O)N2Cc3ccc(C(=O)NCc4ccc(C)cc4C)n3Cc3ccccc32)ccc1-c1ccccc1C | 161 to 162 °C |
| O=C(Cc1ccc(Cl)cc1Cl)c1ccncc1 | 77 °C |
| COc1cc2ccc3nc4ccccc4cc3c2cc1OC | 190 to 192 °C |
| CCC(C)(COc1nn2nc(C)nc2cc1C)CS(N)(=O)=O (centres undefined) | 194 to 195 °C |
| NC(=O)c1c(Cl)cn2c1CN(S(=O)(=O)c1ccc(-c3ccccn3)s1)CC2 | 213 to 214 °C |
| CC1(C)CCc2ccc(Oc3ccc(N)cn3)cc2O1 | 93 to 94 °C |
| COC(=O)c1cc(C(=O)c2c(C)c(NC(=O)c3cccc(OCCOS(C)(=O)=O)c3)c3ccccn23)ccc1N | 171 °C |
| CCCCc1c(F)c(F)c(NN)c(F)c1F | 80 to 81 °C |
| O=C(c1ccc(F)cc1)c1ccc(SCc2ccccc2)cc1 | 96 °C |

| SMILES | melting point |
| --- | --- |
| CNC(=O)CNC(=O)c1ccc(C)c(-n2c(C)cc(OCc3ccccc3CNC(=O)Nc3cc(C(C)(C)C)nn3-c3ccc(Cl)c(O)c3)c(Cl)c2=O)c1 | 179 to 181 °C |
| Cc1c2n(c3ccccc13)C(=O)C(Cc1cn(C)cn1)CC2 (centres undefined) | 99 to 100 °C |
| CCN1c2ncc(/C=C/c3ccncc3)cc2C(=O)N(C)c2ccc(Cl)nc21 | 150 to 152 °C |
| Oc1ccc(-c2nc3ccc(O)cc3o2)c(O)c1 | 293 to 296 °C |
| CC[C@H](C)C(OCc1ccccc1F)[C@H]1[C@H]([N+](=O)[O-])[C@H](c2ccsc2)N[C@@H]1C(=O)NCCC(=O)O (some centres undefined) | 113 to 114 °C |
| CCCC1=CC(NC)=Nc2ccc(Cl)cc2C(c2ccccc2)=[N+]1[O-] | 104 to 106 °C |
| Cn1nc(N)nc1NCCCOc1cccc2c(N3CCOCC3)nccc12 | 178 to 180 °C |
| N#CC(C#N)(OC(=O)c1ccc(Cl)c(Cl)c1)c1ccc(Cl)c(Cl)c1 | 110 °C |
| CN1C(=O)[C@@H](NC(=O)[C@H](N)Cc2ccccc2)N=C(C2CCCCC2)c2ccccc21 | 75 to 78 °C |
| O=C(O)C(=O)NC1CCCCCCC1 | 115 to 116 °C |
| N#Cc1c[nH]c2cccc(OCc3ccccc3)c12 | 139 to 141 °C |
| Nc1nc(Cl)nc(C2CC2)n1 | 139 to 142 °C |
| O=C1CSCC(c2ccc(F)cc2)N1 (centres undefined) | 111 to 112 °C |
| CCCCCN(O)C(=O)Nc1ccc(Cl)c(Cl)c1 | 88 °C |
| COc1cc2c(Nc3cc(CN4CCCC4)c(O)c(CN4CCCC4)c3)ncnc2c(OC)c1OC | 189 to 191 °C |
| CCc1nn(CC(=O)O)c(CC)c1Oc1cc(Cl)cc(Cl)c1 | 157 to 158 °C |
| CCOC(=O)c1cc(C)n(-c2cccc(C(C)=O)c2)c1-c1ccccc1 | 100 to 102 °C |
| COC(=O)c1ccc(C(=O)NC(C(=O)N2CCCC2C(=O)NC(C(C)C)C(O)C(F)(F)F)C(C)C)cc1 (mixture of isomers) | 64 to 67 °C |
| COc1ccccc1OCCNCCCc1c[nH]c2ccccc12 | 101 to 102 °C |
| COCOc1nn(-c2ccccc2)cc1/C=C/c1csc(-c2ccccc2C(=O)OC)n1 | 134 to 135 °C |
| CCC(Nc1ccncc1)c1ccccc1 (centres undefined) | 190 to 192 °C |
| CCCCCCCCc1ccc(CCC(C)(CCOC(C)=O)NC(C)=O)cc1 (centres undefined) | 137 to 141 °C |
| COc1cccc2c1nc(C(F)F)n2-c1nc(N2CCNCC2)nc(N2CC3CCC(C2)O3)n1 | 221 to 223 °C |
| CC1(CO)C(O)CCC2(C)C1CCC1CC3CC12CCC3(O)CO (centres undefined) | 290 to 300 °C |
